# Experiments:
# BxPC3-CLDN18 = assay: IMAB362 mediated apoptosis of gemcitabine treated pancreas tumor cells; format: cell-based, human; details: BxPC3-CLDN18, medium or 100 ng/ml gemcitabine, after 48 hours
# Experimental: BxPC3-CLDN18 were cultivated in medium or medium+100 ng/ml gemcitabine. Apoptotic cell fraction of […] were shifted. Similar shifts were obtained by incubation of tumor cells with Camptotecin.
# Following the indicated treatments, apoptosis was measured by annexin V binding (detection kit I) or by a DNA fragmentation assay (Apo-Direct) as recommended by the manufacturer (PharMingen, San Diego, Calif.). Briefly, cells floating in the supernatant were combined with the adherent fraction, which was trypsinized and then washed. An aliquot of 5 E+05 cells was incubated with annexin V-APC and PI for 15 min at room temperature in the dark. Cells were immediately analyzed by flow cytometry. Viable cells exclude both annexin V-APC and PI. Early apoptotic cells are annexin V-APC-positive and PI-negative, whereas cells that are no longer viable due to apoptotic or necrotic cell death are positively stained by both annexin V and PI. Percentage of stained cells in each quadrant was quantified using FlowJo software (BD Biosciences, Franklin Lakes, N.J.).
# The apoptotic assay based on DNA fragmentation was performed as follows. Treated cells (adherent and floating) were fixed in 70% icecold EtOH overnight. […] Cells were rinsed, incubated in RNase A/propidium iodide in the dark for 30 min at room temperature to stain total DNA, then analyzed by flowvcytometry. […]
# DANG xenografts = assay: Subcutaneous DANG xenograft treatment; format: in vivo, mice; details: low CLDN18.2 expressing DANG xenografts
# KCI-MOH = assay: IMAB362-mediated ADCC assay; format: cell-based, human; details: at least 2 donors
# Panc02.03 = assay: IMAB362-mediated ADCC assay; format: cell-based, human; details: at least 2 donors
# MiaPaCa2 = assay: IMAB362-mediated CDC assay (healthy human serum pool); format: cell-based
# Experimental: (§1) In addition, the LVT cell lines and the parental strains were tested in CDC.
# (§2) CHO-K1 cells stably transfected with CLDN18.2 (p740) and luciferase were used as assay positive controls in each assay (FIG. 23A). […] This is most likely due to the fact that neoplastic cells over-express one or more membrane bound complement inhibitory proteins (e.g. CD46, CD55 and CD59) (Geis et al., Curr Cancer Drug Targets, 2010 10:922-931). However, if expression of these inhibitory proteins on tumor cells affect clinical outcome of an antibody therapy is still contradictory (Dzietczenia et al. Med. Oncol. 2010, 27:743-6; Weng and Levy at al., Blood 2001 98:1352-7). In addition to the endogenous cell lines, all the LVT cell lines were tested in CDC assays.
# Patu8902 = assay: as above; format: cell-based
# Experimental: as §1, §2
# [1] = system: established MiaPaCa-2-LVT xenograft tumors; assay: Established MiaPaCa-2-LVT xenograft tumors, high dose gemcitabine; format: in vivo, mice; details: established MiaPaCa-2-LVT tumors, gemcitabine 2×150 mg/kg per week, independent from IMAB362
# Source text: 9 days after subcutaneous tumor inoculation, tumor bearing mice reorganised in homogenous treatment groups with 8 animals per group and treatment was initiated.
Molecule,induction of apoptosis (BxPC3-CLDN18),growth inhibition compared to high CLDN18.2 expressing xenograft tumors (DANG xenografts),ADCC EC50 (KCI-MOH),ADCC EC50 (Panc02.03),ADCC Max. lysis (Panc02.03),CDC EC50 (MiaPaCa2),CDC Max. lysis (MiaPaCa2),CDC EC50 (Patu8902),CDC Max. lysis (Patu8902),tumor growth [1]
"IMAB362: chimeric IgG1 antibody directed against CLDN18.2, developed by Ganymed Pharmaceuticals AG",Apoptosis induced by cross-linking,reduced,n.m.,n.m.,n.m.,n.m.,n.m.,n.m.,n.m.,
"Nc1ccn([C@@H]2O[C@H](CO)[C@@H](O)C2(F)F)c(=O)n1 [gemcitabine, 4-amino-1-(2-deoxy-2,2-difluoro-β-D-erythro-pentofuranosyl)pyrimidin-2(1H)-one]",,,,,,,,,,strongly inhibited in tumor growth
